In PMC7112848 (Journal of Virological Methods, 2008):

Target: rgH1N1 NA (Influenza A virus, UniProt Q6DPL2)
Type: biochemical, reverse-genetic influenza A virus rgH1N1

rgH1N1 NA, sequence (Q6DPL2 whole entry, looked up): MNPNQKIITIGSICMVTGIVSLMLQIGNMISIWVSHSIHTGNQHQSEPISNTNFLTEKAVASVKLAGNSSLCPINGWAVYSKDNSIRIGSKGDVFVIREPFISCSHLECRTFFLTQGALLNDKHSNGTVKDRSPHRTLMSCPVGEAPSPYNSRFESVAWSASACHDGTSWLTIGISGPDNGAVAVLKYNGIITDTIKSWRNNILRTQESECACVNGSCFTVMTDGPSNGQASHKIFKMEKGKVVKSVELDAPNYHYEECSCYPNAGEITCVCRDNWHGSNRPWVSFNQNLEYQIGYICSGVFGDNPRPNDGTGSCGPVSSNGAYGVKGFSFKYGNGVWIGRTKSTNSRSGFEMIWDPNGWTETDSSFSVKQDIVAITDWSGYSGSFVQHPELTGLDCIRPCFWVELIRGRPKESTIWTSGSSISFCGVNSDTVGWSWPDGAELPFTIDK

CC(=O)N[C@@H]1[C@@H](O)C[C@](Oc2ccc3c(C)cc(=O)oc3c2)(C(=O)O)O[C@H]1C(O)[C@H](O)CO (stereo partly drawn) [MUNANA, 2′-(4-methylumbelliferyl)-α-D-N-acetylneuraminic acid]
Km: 18 ± 2 µM
